# Laboratory results: the METLIN SMRT retention time set (Domingo-Almenara et al. 2019)
# Experiment: gradient 5% acetonitrile 3 min, to 50% in 2 min, to 85% in 15 min, held 3 min, 100 µL/min
# Conditions: column: Zorbax Extend-C18 2.1 x 50 mm; eluents: water / acetonitrile, 0.1% formic acid
# Summary of the method: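 Using water and acetonitrile that each contained 0.1% formic acid, mixtures of ~100 pure standards were separated at 100 μL/min on a Zorbax Extend-C18 column (2.1 × 50 mm, 1.8 μm). The HPLC fed a quadrupole time-of-flight mass spectrometer working in positive and negative ionization mode, with dead and dwell volumes of 40 μL and 900 μL. Data were acquired over 3 months. Retention time was read from computationally picked adduct peaks after manual inspection of each.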
row,SMILES,RP-LC retention time
1,CCN1CCn2cc(S(=O)(=O)N3CCN(c4ccccc4)CC3)cc2C1=O,684 s
2,CCc1nc2cc(N3CCC(C(=O)NCCN4CCCCC4)CC3)cnc2nc1CC,580 s
3,CCCNC(=O)C1CCCN(c2nc3ncn(CC(=O)NCc4ccccc4)c(=O)c3s2)C1 (configuration not stated),669 s
4,Cn1nccc1C(=O)N1CCc2cc(-c3csc(C4CC4)n3)ccc21,990 s
5,COCc1cc(=O)n(CCc2ccccc2)c(N2CCCC2)n1,816 s
6,CCOc1cccc(CNS(=O)(=O)c2cc3c(s2)CCN(C(=O)C2CCC2)C3)c1,940 s
7,CSc1nc2ccc(NS(=O)(=O)c3ccc(Br)s3)cc2s1,994 s
8,CCOC(=O)c1cccc(Nc2ncccc2S(N)(=O)=O)c1,854 s
9,O=C(CCSc1ccccc1)NCC1CCN(C(=O)COc2ccccc2)CC1,757 s
10,O=C(Cn1nc2n(c1=O)CCCCC2)NCc1ccc(Cl)cc1,702 s
11,Cc1cc(C)c(NC(=O)Cn2nc3n(c2=O)CCCC3)c(C)c1,684 s
12,Cc1ccc2cc(CCC(=O)NC(C)c3cn(C)nc3C)c(=O)[nH]c2c1 (configuration not stated),618 s
13,Cc1cc2[nH]c(C(=O)Nc3ccccc3Br)c(CN(C)C)c2s1,659 s
14,Cc1ccc(C)c(NC(=O)Cn2cnc3nc(N4CCCC(C(=O)NC5CC5)C4)sc3c2=O)c1 (configuration not stated),683 s
15,CC(C(=O)NCCc1ccco1)n1c(=O)c(C(F)(F)F)nc2ccccc21 (configuration not stated),698 s
16,COCCC1CCN(C(=O)COc2ccccc2)CC1,800 s
17,O=C(Nc1ccccc1F)NC1CCN(C(=O)C2CC2)C1 (configuration not stated),673 s
18,Cc1cc(NC(=O)C2CCN(S(=O)(=O)c3ccc(F)cc3)CC2)n(C)n1,732 s
19,COCCn1cc2c3c(cccc31)CN(C(=O)c1ccc(Cl)s1)CC2,1060 s
20,Cc1oc(C2CCN(C(=O)Nc3cccc(Cl)c3C)CC2)nc1C(=O)N1CCCC1,813 s

row,SMILES,RP-LC retention time
1,CC(C)NC(=O)N(CC(=O)N1CCc2sccc2C1COc1ccccc1)CC1CC1 (configuration not stated),943 s
2,O=C(Nc1ccc2c(c1)OCO2)N1CCN(Cc2ccccc2)c2ncccc21,732 s
3,O=C(Nc1ccccc1F)N1CC2CN(S(=O)(=O)c3ccc(F)cc3)CC(C1)O2,758 s
4,O=C1C2ON(c3ccccc3)C(c3ccccn3)C2C(=O)N1c1cccc(C(F)(F)F)c1 (configuration not stated),994 s
5,CCCC(=O)Nc1nnc(SCc2nnc(-c3ccc4c(c3)OCO4)o2)s1,794 s
6,Cc1cc(C)c2c(N3CCSCC3)nc(C(=O)NCCN3CCCC3)nc2n1,600 s
7,CCCNC(=O)c1cc(-c2ccc(F)cc2)cn1CC,925 s
8,Cc1ccc(N(C)S(=O)(=O)c2c(C)sc(C)c2-c2cc(C(F)(F)F)on2)cc1C,1370 s
9,CC(C)OC(=O)c1ncoc1-c1ccccc1C(=O)NCC1CCCO1 (configuration not stated),676 s
10,COCCNC(=O)c1cc(-c2ccc(C)c(C)c2)[nH]c1C,772 s
11,CCN1C(=O)c2cccc3c(NC(=O)Cc4cccs4)ccc1c23,718 s
12,C=C1C(=O)OC2C1CCC(C)C1(O)C=CC(=O)C21C (configuration not stated),722 s
13,Cc1nnc(NC(=O)CCc2csc(NC(=O)c3ccco3)n2)s1,630 s
14,CCCS(=O)(=O)c1nc2ccc(NS(=O)(=O)c3ccc4c(c3)OCCO4)cc2s1,888 s
15,O=C(CN1C(=O)NC2(CCCCC2)C1=O)Nc1ccc(F)cc1,731 s
16,CCc1ccccc1NS(=O)(=O)c1cc(-c2[nH]ncc2C(=O)N2CCOCC2)oc1C,721 s
17,CCC1CN2C=NC(N3CCN(C(=O)Nc4cccc(SC)c4)CC3)=CC2=N1 (configuration not stated),663 s
18,CC(=O)Nc1cccc2c(C(=O)N3CCN(c4ccccc4Cl)CC3)ccnc12,946 s
19,Cc1ccc(S(=O)(=O)NCCc2nnc3ccc(NCCCOC(C)C)nn23)cc1,657 s
20,O=S(=O)(c1ccc(F)c(Cl)c1)N1CCc2nc[nH]c2C1,632 s

# Further lines, results first:
row,RP-LC retention time,SMILES
1,911 s,Cc1nc2nc(-c3ccc(C(C)(C)C)cc3)nn2c(C)c1CC(=O)NC(C)C
2,982 s,Cc1cccc(CNC(=O)CCC2CCN(S(=O)(=O)c3ccccc3C)CC2)c1
3,639 s,O=C(Cn1cnc2ccccc21)OCc1cc(-c2ccc3c(c2)OCO3)on1
4,840 s,Cc1ccc(NC(=O)Cn2c(=O)n(-c3ccccc3)c3ncccc32)cc1
5,1190 s,COc1ccc(C2Cn3nnc(-c4nc(-c5cccc(C)c5)no4)c3CO2)cc1 (configuration not stated)
6,1310 s,Cc1ccc(C)c(-c2coc(-c3ccc(NC(=O)c4ccc(Br)o4)cc3)n2)c1
7,910 s,CCc1nc(OCC(=O)Nc2ccc(Br)cc2F)c2ccccc2n1
8,900 s,CCc1cccc(NS(=O)(=O)c2cc(-c3c(CC)noc3NC(C)=O)ccc2C)c1
9,743 s,COCCNC(=O)CN1c2ccccc2NC2=C(C(=O)CC(C)(C)C2)C1c1ccc(OC)cc1 (configuration not stated)
10,640 s,Cc1cc(C)c2[nH]c3c(c(=O)c2c1)CN(CC(=O)Nc1cccc(F)c1)CC3
11,767 s,COc1ccc2[nH]cc(CCNC(=O)Cn3c4ccccc4c4cnn(C)c(=O)c43)c2c1
12,762 s,Cc1cccc(CNC(=O)C2CCCN(C(=O)C3Sc4ccccc4NC3=O)C2)c1 (configuration not stated)
13,707 s,CC1(C)CC(=O)c2cn(-c3ccc(F)cc3)c(=O)c(C(=O)Nc3cccnc3)c2C1
14,1140 s,Cc1ccc(C)c(N2CCN(c3ccnc(SCC(=O)Nc4ccc(Cl)cc4F)n3)CC2)c1
15,1050 s,CCn1c(C(=O)N2CCN(c3cccc(OC)c3)CC2)cc2sccc21
16,921 s,Cc1cc(-c2nnc(-c3ccccc3)o2)c(C)n1CC(=O)NC(C)c1ccccc1 (configuration not stated)
17,843 s,Cc1cc2cc(CNC(=O)Nc3cccc(Cl)c3)ccc2[nH]1
18,1030 s,COc1ccc(Cl)cc1-c1nc(C2CC(=O)N(c3ccc(F)cc3)C2)no1 (configuration not stated)
19,901 s,Cc1ccc(-c2cn3c(CC(=O)N4CCc5ccccc54)csc3n2)cc1C
20,776 s,O=C(CCCc1ccccc1)N1CCC(c2noc(-c3cnccn3)n2)C1 (configuration not stated)
21,862 s,O=C(NC1CC1)c1ccc(OCC2CCCN(C(=O)c3ccc(F)c(Cl)c3)C2)cc1 (configuration not stated)
22,1070 s,CCOC(=O)c1nc(N2CCN(c3cccc(C(F)(F)F)c3)CC2)c2ccccc2n1
23,827 s,COc1ccccc1-c1noc(C2CCCN2C(=O)Nc2ccccc2C)n1 (configuration not stated)
24,1060 s,CC(C)CNC(=O)N1CC(Oc2ccc(-c3nc(-c4ccccc4)no3)cc2)C1
25,978 s,CC1(C)C(=O)N(CC(=O)Nc2cccc(Cl)c2)c2ccccc21
26,690 s,Cc1ccc(C)n1-c1c(C(=O)N2CCN(c3ccccn3)CC2)sc2ncccc12
27,943 s,COc1cccc(-c2nc(C3CC(=O)N(c4ccccc4)C3)no2)c1 (configuration not stated)
